Three compounds from patent publication US12044651B2, “Sensor device and methods” (SCENTIAN BIO LIMITED, priority 2016, dated 2024) can be followed below.

Assay type in all cases: binding
Assay [1] addresses T1, Or10a (Drosophila melanogaster, UniProt Q9VYZ1).
T1 sequence (Q9VYZ1 1-406): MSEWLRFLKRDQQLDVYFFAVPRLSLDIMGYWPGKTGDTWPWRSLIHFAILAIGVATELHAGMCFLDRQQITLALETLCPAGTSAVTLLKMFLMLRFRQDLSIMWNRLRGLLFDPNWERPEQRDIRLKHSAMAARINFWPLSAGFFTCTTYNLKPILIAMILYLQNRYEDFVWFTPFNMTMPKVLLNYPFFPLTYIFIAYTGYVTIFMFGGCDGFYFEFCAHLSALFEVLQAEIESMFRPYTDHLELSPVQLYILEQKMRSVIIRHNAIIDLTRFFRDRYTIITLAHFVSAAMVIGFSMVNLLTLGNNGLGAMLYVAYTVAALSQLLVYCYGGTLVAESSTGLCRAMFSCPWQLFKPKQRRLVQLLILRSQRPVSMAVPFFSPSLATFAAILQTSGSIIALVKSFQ
The assay can be described thus: EIS sensor, Or10a nanodiscs on gold electrode (Example 4).

Assay [2] addresses T1, Or10a. The assay is described as follows: CNT-FET sensor covalently functionalized with OR10a nanodiscs (Example 3). The settings on record: for current response: increasing additions of ligand. As to the method:
The dispersion was sonicated until a clear solution was obtained. The temperature was kept at 25° C. throughout the sonication process. The thiolpyridine solution was prepared by dissolving 10 mg of 2-Mercaptopyridine (99%, Sigma Aldrich) in 1 ml of methanol. The solution was spun coated on a polydimethylsiloxane (PDMS) surface at 2000 rpm for one minute. Before the spin coating process, the PDMS surface was cleaned by a 50 W Oxygen plasma for 1 minute to improve the wettability. The cleaned substrates were placed upside down on the PDMS surface for three minutes and washed in ethanol to remove the excess thiolpyridine molecules. Then the substrates were transferred into the CNT suspension and immersed into the suspension for 10 minutes. The samples were removed from the suspension and dipped into Ethanol for another 10 minutes to remove the thiolpyridine molecules in the SWNT network. The alignment markers were deposited by defining the markers by photolithography and thermal evaporation of 5 nm Chromium and 50 nm of Gold. The metal Lift off was done by acetone immersion for 15 minutes followed by an Isopropyl alcohol (IPA) wash and N2 blow dry. The result is a uniform thin film CNT network covering the entire substrate surface. The purification procedure is a variation on the one detailed in […] et al. 2013^14. […] The cell pellet was collected by centrifugation at 3800 g for 10 min at room temperature and then resuspended in 40 mL of resuspension buffer A (20 mM Tris/HCl pH 7.5, 100 mM NaCl, 1× protease inhibitor cocktail (Roche Diagnostics GmbH, Germany)), with 25 U/mL Benzonase, then lysed by two passes on an Emulsiflex C5 emulsifier (Avestin, Germany) at 10,000-15,000 psi. The sample was then centrifuged at 1000 g for 5 min to remove whole cells and nuclei. The supernatant was removed and spun at 100,000 g for 1 h at 4° C. The membrane pellet was resuspended in 40 mL of buffer A with 1% w/v detergent (Zwittergent 3-16) and rotated for 1 h at room temperature at 10 rpm. The sample was then centrifuged at 100,000 g for 1 h at 18° C. The supernatant was removed and loaded onto a 1 mL NiNTA column (GE Healthcare) where the zwittergent 3-16 detergent was exchanged to Fos-Choline 14 (FC-14). The column was washed in ten column volumes of buffer B (20 mM Tris/HCl pH 7.5, 3.6 mM FC-14) with 300 mM NaCl and 20 mM imidazole, and a further ten column volumes of buffer B with 100 mM NaCl and 50 mM imidazole. Protein was eluted with four column volumes buffer B with 100 mM NaCl and 500 mM imidazole. Purity was assessed on Coomassie stained SDS-PAGE gels and Western blotting. Purification was completed with a final size exclusion chromatography (SEC) step. […]

The next assay deals with T2, Or22a (Drosophila melanogaster, UniProt P81909).
T2 sequence (P81909 1-397): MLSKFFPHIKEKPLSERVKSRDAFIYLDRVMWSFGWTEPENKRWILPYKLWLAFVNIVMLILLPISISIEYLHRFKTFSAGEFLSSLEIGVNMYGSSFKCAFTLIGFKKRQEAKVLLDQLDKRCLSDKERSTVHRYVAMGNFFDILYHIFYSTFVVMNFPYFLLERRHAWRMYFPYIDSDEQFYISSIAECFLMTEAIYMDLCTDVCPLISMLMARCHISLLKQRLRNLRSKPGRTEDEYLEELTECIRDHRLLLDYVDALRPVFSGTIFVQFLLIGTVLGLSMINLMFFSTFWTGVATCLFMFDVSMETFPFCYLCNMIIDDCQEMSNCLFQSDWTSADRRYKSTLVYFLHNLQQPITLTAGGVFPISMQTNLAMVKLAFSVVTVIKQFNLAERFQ
The assay can be described thus: CNT-FET sensor covalently functionalized with Or22a nanodiscs (Example 3). As to the method:
The dispersion was sonicated until a clear solution was obtained. The temperature was kept at 25° C. throughout the sonication process. The thiolpyridine solution was prepared by dissolving 10 mg of 2-Mercaptopyridine (99%, Sigma Aldrich) in 1 ml of methanol. The solution was spun coated on a polydimethylsiloxane (PDMS) surface at 2000 rpm for one minute. Before the spin coating process, the PDMS surface was cleaned by a 50 W Oxygen plasma for 1 minute to improve the wettability. The cleaned substrates were placed upside down on the PDMS surface for three minutes and washed in ethanol to remove the excess thiolpyridine molecules. Then the substrates were transferred into the CNT suspension and immersed into the suspension for 10 minutes. The samples were removed from the suspension and dipped into Ethanol for another 10 minutes to remove the thiolpyridine molecules in the SWNT network. The alignment markers were deposited by defining the markers by photolithography and thermal evaporation of 5 nm Chromium and 50 nm of Gold. The metal Lift off was done by acetone immersion for 15 minutes followed by an Isopropyl alcohol (IPA) wash and N2 blow dry. The result is a uniform thin film CNT network covering the entire substrate surface. The purification procedure is a variation on the one detailed in […] et al. 2013^14. […] Purity was assessed on Coomassie stained SDS-PAGE gels and Western blotting. […]

Where [3] appears, read: real time current measurement mode.

`CCC/C=C/C=O` [E2-hexenal]: at Or10a [1], the “EIS response to control ligand” value is given as “do not respond”. Moreover, the current response entry at Or10a [2] (nanodiscs 1:100 dilution) is reported as “no response”.

As for `CCCCCC(=O)OC` [methyl hexanoate], on Or22a (nanodiscs 1:100 dilution), the limit of detection result is recorded as “below 1 fM”. Also, the “concentration at which clear electronic response starts” value on Or22a (setting [3]) was determined as 1 fM.

On Or10a [1] (EIS), `COC(=O)c1ccccc1O` [methyl salicylate] displayed an LOD of 10 fM. In addition, at Or10a [2] (nanodiscs 1:100 dilution), the limit of detection result was “below 1 fM” and the current response entry is reported as “consistently large decreases”. In addition, the “concentration at which clear electronic response starts” value on Or10a [2] (setting [3]) was 1 fM.
